According to ChEMBL document CHEMBL1201862, “PubChem BioAssay data set” (2004):
Calls of active or inactive are those of the source.

How the values were obtained:
Streptococcus = experiment: GAS UMAA2166 growth inhibition – luminescence, BacTiterGlo, counter-screen for streptokinase expression inhibitor project, dose response (AID 1915); format: functional, organism-based; conditions: Streptococcus;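 also: potency for reduction of bacterial viability or growth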
Streptokinase A = target: T1, Streptokinase A (Streptococcus pyogenes serotype M1, UniProt P10520); experiment: viability-normalized secreted streptokinase activity reduction – plasminogen activation absorbance, OD405, dose response (AID 1914); format: functional, Streptococcus pyogenes M1 GAS;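 also: secreted streptokinase activity via plasminogen activation per viability signal from cell pellet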
T1 sequence (P10520 whole entry): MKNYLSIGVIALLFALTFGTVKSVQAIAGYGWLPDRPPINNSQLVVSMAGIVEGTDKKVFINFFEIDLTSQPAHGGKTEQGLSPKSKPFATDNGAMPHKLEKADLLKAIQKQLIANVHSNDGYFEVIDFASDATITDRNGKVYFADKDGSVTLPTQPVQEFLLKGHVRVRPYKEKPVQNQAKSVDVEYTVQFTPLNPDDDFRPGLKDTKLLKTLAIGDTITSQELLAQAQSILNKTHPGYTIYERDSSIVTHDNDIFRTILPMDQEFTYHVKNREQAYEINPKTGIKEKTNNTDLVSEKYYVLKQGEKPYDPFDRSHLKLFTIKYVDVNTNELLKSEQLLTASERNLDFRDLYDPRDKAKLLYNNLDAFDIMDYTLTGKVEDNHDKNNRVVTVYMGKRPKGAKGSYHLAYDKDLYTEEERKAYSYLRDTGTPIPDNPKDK

[1] = target: T2, G-protein coupled receptor 55 (Homo sapiens, UniProt Q9Y2T6); experiment: inhibition of LPI-stimulated GPR55 beta-arrestin translocation – imaging, U2OS, beta-arrestin-GFP, LPI agonist, primary screen (AID 2013); format: functional;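 also: antagonist potency measured as reduced agonist-driven arrestin aggregation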
[2] = test system: Streptococcus sp. 'group A'; experiment: Streptococcus pyogenes SK(-)GAS viability under kanamycin – luminescence, BacTiterGlo, confirmation, counter-screen for streptokinase expression inhibitor project, dose response (AID 1900); format: functional, organism-based; conditions: Streptococcus sp. 'group A'
Troponin, cardiac muscle = Troponin, cardiac muscle (Homo sapiens, UniProt P19429+P45379+P63316); experiment: Fluorescence-based biochemical high throughput dose response assay for activators of the calcium sensitivity of cardiac Regulated Thin Filaments (RTF). [Related pubchem assays (depositor defined):AID493008, AID493018, AID504382, AID504383]; format: protein-complex assay
CAAX prenyl protease 2 [3] = target: CAAX prenyl protease 2 (Saccharomyces cerevisiae S288c, UniProt Q03530); format: biochemical
CAAX prenyl protease 2 [4] = target: T3, CAAX prenyl protease 2 (Homo sapiens, UniProt Q9Y256); experiment: inhibition of Ras-converting CAAX protease Rce1 – biochemical, yeast membranes, quenched-peptide fluorescence, cherry-pick, dose response (AID 588849)
T3 sequence (Q9Y256 whole entry): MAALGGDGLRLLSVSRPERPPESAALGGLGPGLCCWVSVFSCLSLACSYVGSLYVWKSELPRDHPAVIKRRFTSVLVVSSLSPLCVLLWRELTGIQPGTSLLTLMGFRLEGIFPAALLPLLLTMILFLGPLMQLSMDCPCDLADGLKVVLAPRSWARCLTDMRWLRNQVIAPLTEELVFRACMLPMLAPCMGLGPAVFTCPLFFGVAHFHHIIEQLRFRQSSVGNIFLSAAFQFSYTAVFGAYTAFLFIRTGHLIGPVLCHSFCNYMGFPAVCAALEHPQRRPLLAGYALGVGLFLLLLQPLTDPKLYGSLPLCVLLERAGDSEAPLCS

[5] = target: Peroxisome proliferator-activated receptor gamma (Homo sapiens, UniProt P37231); experiment: PPARg transcriptional activation, reporter cells – cell-based, luminescence, assay provider, dose response (AID 504447); format: functional
[6] = target: T4, Runt-related transcription factor 1/Core-binding factor subunit beta (Homo sapiens, UniProt Q01196+Q13951); experiment: Confirmation of compounds inhibiting the binding between the RUNX1 Runt domain and CBFb-SMMHC via a fluorescence resonance energy transfer (FRET) assay. [Related pubchem assays (depositor defined):AID1434, AID1438, AID1496, AID1550, AID1645]; format: protein assay
[7] = target: T4, Runt-related transcription factor 1/Core-binding factor subunit beta; experiment: Runt domain/CBFb-SMMHC interaction disruptors – biochemical, TR-FRET (AID 1438); format: protein assay
[8] = target: T2, G-protein coupled receptor 55; experiment: selective activators of receptor GPR55 – imaging, U2OS cells, beta-arrestin-GFP redistribution, primary screen (AID 1961); format: functional
Genome polyprotein = Genome polyprotein (dengue virus type 2, UniProt P29990); experiment: flavivirus cap methylation enzyme inhibition – biochemical, confirmation dose response, primary screen (AID 588689); format: functional
[9] = target: T5, Heat shock factor protein 1 (Mus musculus, UniProt P38532); experiment: enhancement of HSF1-driven luciferase signal – cell-based, NIH3T3, luminescence, dose retest, confirmation (AID 435004); format: functional;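 also: stress induced by proteasome inhibitor MG132 added 30 min after compound; luciferase reporter driven by HSF1 response element in NIH3T3 cells; actives raise luminescence as potentiators of the MG132 stress response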
T5 sequence (P38532 whole entry): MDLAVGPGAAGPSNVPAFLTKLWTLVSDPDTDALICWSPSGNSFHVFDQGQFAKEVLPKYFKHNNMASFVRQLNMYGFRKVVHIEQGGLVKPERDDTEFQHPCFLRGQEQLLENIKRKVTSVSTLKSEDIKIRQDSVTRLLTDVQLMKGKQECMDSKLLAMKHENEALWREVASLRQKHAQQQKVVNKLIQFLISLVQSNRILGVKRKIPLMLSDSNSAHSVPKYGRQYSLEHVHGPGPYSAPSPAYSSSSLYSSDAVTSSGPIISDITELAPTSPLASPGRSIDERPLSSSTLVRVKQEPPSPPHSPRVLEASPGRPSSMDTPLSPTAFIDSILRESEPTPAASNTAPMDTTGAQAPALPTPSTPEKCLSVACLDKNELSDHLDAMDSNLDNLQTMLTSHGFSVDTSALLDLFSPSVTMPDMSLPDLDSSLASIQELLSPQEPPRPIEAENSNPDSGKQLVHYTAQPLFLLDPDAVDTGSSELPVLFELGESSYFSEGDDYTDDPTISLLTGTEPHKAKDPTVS

[10] = target: Heat shock protein HSP 90-alpha (Homo sapiens, UniProt P07900); format: functional, organism-based
[11] = target: T4, Runt-related transcription factor 1/Core-binding factor subunit beta; experiment: Confirmation of compounds inhibiting the binding between the RUNX1 Runt domain and CBFb-SMMHC via a time resolved fluorescence resonance energy transfer (TR-FRET) assay. [Related pubchem assays (depositor defined):AID1434, AID1438, AID1496, AID1560, AID1645]; format: protein assay
[12] = target: T4, Runt-related transcription factor 1/Core-binding factor subunit beta; experiment: disruptors of Runt domain/CBFb-SMMHC interaction – biochemical, FRET, Cerulean-Runt, Venus-CBFb-SMMHC, uHTS, […] (AID 1434); format: protein assay
Coagulation factor XII = target: T6, Coagulation factor XII (Homo sapiens, UniProt P00748); experiment: Factor XIIa Dose Response Confirmation from Single Well HTS. [Related pubchem assays (depositor defined):AID701]; format: functional
T6 sequence (P00748 whole entry): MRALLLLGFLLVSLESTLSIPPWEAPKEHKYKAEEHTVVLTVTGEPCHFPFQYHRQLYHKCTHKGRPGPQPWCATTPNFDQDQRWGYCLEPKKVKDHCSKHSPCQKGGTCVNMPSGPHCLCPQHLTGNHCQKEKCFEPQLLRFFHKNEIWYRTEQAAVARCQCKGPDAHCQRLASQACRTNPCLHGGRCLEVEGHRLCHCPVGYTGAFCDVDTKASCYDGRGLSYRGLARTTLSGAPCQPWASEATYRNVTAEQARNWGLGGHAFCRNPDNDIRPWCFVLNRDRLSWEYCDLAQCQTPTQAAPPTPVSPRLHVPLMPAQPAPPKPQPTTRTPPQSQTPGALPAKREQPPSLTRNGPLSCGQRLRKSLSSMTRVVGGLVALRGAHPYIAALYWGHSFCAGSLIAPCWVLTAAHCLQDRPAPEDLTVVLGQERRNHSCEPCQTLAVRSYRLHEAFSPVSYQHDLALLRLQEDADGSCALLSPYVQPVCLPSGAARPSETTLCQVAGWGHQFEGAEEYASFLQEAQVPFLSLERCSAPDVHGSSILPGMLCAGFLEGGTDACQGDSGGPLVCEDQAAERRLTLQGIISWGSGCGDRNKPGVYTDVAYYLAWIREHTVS

For `c1ccc2c(-c3c[nH]c4ccccc34)c3ccccc3nc2c1`, the EC50 (Streptococcus) was 15.8 µM (active), the EC50 (Streptokinase A) was > 150 µM (not active) and the IC50 [1] was 4.83 µM (active). The EC50 [2] was 8.94 µM (active).

With `CC1=CC(=C(C#N)C#N)C=C(C)N1Cc1ccc(Cl)cc1` the EC50 (Troponin, cardiac muscle) was > 71.5 µM (inactive).

In the case of `CN1c2ccccc2-c2nc3ccccc3n2C1c1ccncc1` (configuration not stated), the AC50 (CAAX prenyl protease 2 [3]) is reported as 68.9 µM (active) and the AC50 (CAAX prenyl protease 2 [4]) is reported as 2.65 µM (active).

For `CN1CCN(S(=O)(=O)c2ccc(Sc3nc4ccccc4[nH]3)c3nsnc23)CC1`, the EC50 [5] was 7.6 µM (active).

For `O=C1C=CC(=O)N1N(c1ccccc1)c1ccccc1`, the IC50 [6] was 10.3 µM (active), the IC50 [7] was 21.4 µM (active) and the EC50 [8] was > 32 µM (inactive). For the same compound, the IC50 (Genome polyprotein) was 41.6 µM (active), the EC50 [9] was 4.95 µM (active) and the AC50 [10] was 4.16 µM (active). For the same compound, the IC50 [11] was 16.5 µM (active) and the IC50 [12] was 10.1 µM (active).

In the case of `CC1=CC(=NOC(=O)c2cccc([N+](=O)[O-])c2)C=C(C)C1=O`, the IC50 (Coagulation factor XII) is reported as 1.94 µM (active).
